Test: gradient 5% acetonitrile 3 min, to 50% in 2 min, to 85% in 15 min, held 3 min, 100 µL/min
Conditions: column: Zorbax Extend-C18 2.1 x 50 mm; eluents: water / acetonitrile, 0.1% formic acid
Outline: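 Retention time was recorded from adduct peaks, which were picked computationally and each inspected manually. Pure standards ran in mixtures of ~100 molecules on HPLC coupled to a quadrupole time-of-flight mass spectrometer, in positive and negative ionization mode, through a Zorbax Extend-C18 column (2.1 × 50 mm, 1.8 μm) at 100 μL/min. Eluents were water and acetonitrile, each with 0.1% formic acid.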

| RP-LC retention time [s] | Compound |
| --- | --- |
| 709 | COc1ccc(NC(=O)Cn2nc3n(c2=O)CCCCC3)cc1 |
| 596 | Cc1ccc(C(=O)NCCc2nc3cccnc3n2C)s1 |
| 669 | Cc1oc(-c2[nH]ncc2C(=O)N2CCOCC2)cc1S(=O)(=O)Nc1ccc(F)cc1 |
| 834 | CC(C)NC(=O)c1nc(-c2cn(-c3cccc(F)c3)nn2)no1 |
| 742 | CCOc1ccc(C(=O)NC2CCN(c3cc(-c4ccc(OC)cc4)[nH]n3)C2)cc1OCC (centres undefined) |
| 667 | CCOc1ccc2ncc(S(=O)(=O)c3ccc(C)cc3)c(N3CCN(C)CC3)c2c1 |
| 780 | CC(C)Cc1nnc(NC(=O)C2CCN(C(=O)c3cccc(F)c3)CC2)s1 |
| 605 | COc1cccc(COc2cn(C)c(C(=O)N3CCN(c4ncccn4)CC3)cc2=O)c1 |
| 1210 | CCOc1ccccc1-c1nc(-c2ccc3oc(CC)nc3c2)no1 |
| 869 | CC(C)(C)CNC(=O)c1cc(=O)[nH]c2ccccc12 |
| 1010 | CC(C)CC(NC(=O)OCc1ccccc1)C(=O)NC(Cc1ccccc1)C(=O)CCl (centres undefined) |
| 795 | Cn1nc(CNC(=O)c2ccc(Br)o2)c2ccccc21 |
| 887 | COc1ccc(Cl)cc1NC(=O)c1cccn1-c1cccnc1 |
| 726 | CCC(C)C(NC(=O)c1cccc(OC)c1)C(=O)Nc1nc2ccccc2[nH]1 (centres undefined) |
| 780 | COc1ccc(-n2ccn3cc(-c4ccc(OC)c(OC)c4)nc3c2=O)cc1Cl |
| 758 | CCOc1cccc(CNc2ncc(C(=O)O)c(C)n2)c1 |
| 594 | Cn1cc(C(=O)NC2CCN(Cc3ccccc3)CC2)c2cccnc21 |
| 664 | CN1CCN(C(=O)Cn2cccc2-c2nc(-c3ccccc3)cs2)CC1 |
| 682 | Cc1noc(C)c1S(=O)(=O)N1CCC(n2c(C)cnc2-c2ccccc2)CC1 |
| 693 | O=C(Cn1cnc2nc(N3CCC(C(=O)NC4CC4)CC3)sc2c1=O)Nc1cc(F)ccc1F |
| 1070 | O=C(NCc1ccccc1Cl)C1CCCN(c2nccnc2Sc2ccccc2)C1 (centres undefined) |
| 726 | COc1ccc(NC(=O)C2CCCN(c3cnc4nccnc4c3)C2)cc1F (centres undefined) |
| 947 | O=C1C(O)=C(S(=O)(=O)c2ccccc2)C(c2ccccc2)N1Cc1ccccc1 (centres undefined) |

| RP-LC retention time [s] | Compound |
| --- | --- |
| 1000 | Cc1nc(-c2csc(S(=O)(=O)N3CCCC(C(=O)NC4CCCCCC4)C3)c2)no1 (centres undefined) |
| 1130 | O=C(O)Cn1c(C(=O)Nc2nc(-c3ccccc3Cl)cs2)cc2ccccc21 |
| 832 | O=C(c1ccc2ccccc2n1)N1CCC(OCC2CC2)C1 (centres undefined) |
| 845 | O=C(NC1CCCCCC1)C1CCN(Cc2cc3ccccc3n2Cc2ccccc2)CC1 |
| 604 | COc1ccc(S(=O)(=O)N2CCCC(C(=O)NCc3ccccn3)C2)cc1OC (centres undefined) |
| 823 | Cc1sc(NC(=O)c2ccc3c(c2)OCO3)nc1-c1ccc2c(c1)N(C)C(=O)CO2 |
| 955 | N#Cc1ccc(C(=O)N2CCN3CCS(=O)(=O)N(C4CC4)C(=O)C3C2)cc1 (centres undefined) |
| 806 | Cc1ccc(CNC(=O)CN2C(=O)CCn3nc(-c4cn(C)c5ccccc45)cc32)o1 |
| 758 | COc1ccc(N2C=C(C(=O)N3CCCC3)S(=O)(=O)c3ccc(F)cc32)cc1OC |
| 748 | CCOc1cc(=O)n2c(c1C(=O)Nc1cc(F)ccc1F)CCCC2 |
| 747 | O=C(c1ccc(OCC2CCN(C(=O)c3cccs3)CC2)cc1)N1CCOCC1 |
| 581 | O=C(c1ccsc1)N1CCC(Nc2ncnc3c2CCC3)CC1 |
| 661 | COc1ccc2nc(N3CC(C(=O)N4CCc5cc(OC)c(OC)cc5C4)C3)sc2c1 |
| 1250 | COc1cccc(-n2c(=O)c(C(=O)Nc3cccc(F)c3)c(O)c3cccnc32)c1 |
| 963 | Cc1nc(C2(C)CCN(S(=O)(=O)c3ccccc3C(F)(F)F)CC2)no1 |
| 639 | CC(=O)N1CCC2(CC1)OC(=O)C(C)=C2C(=O)NCCCN1CCN(c2cc(C)ccc2C)CC1 |
| 1020 | Cc1nn(C)c2nc(OC(C)C(=O)NCc3ccccc3Cl)cc(C(F)(F)F)c12 (centres undefined) |
| 814 | CCc1cc(C(=O)N2CCN(c3ccccc3)CC2)nc2ccnn12 |
| 670 | Cc1ccc(CNC(=O)c2cn3ccc(C)cc3n2)cc1 |
| 614 | O=C(NCCc1cccs1)c1cc[nH]c1C1CCCNC1 (centres undefined) |
| 888 | Cc1sc(NC(=O)CCc2ccccc2)nc1-c1ccc2c(c1)NC(=O)CO2 |
| 700 | CCc1nnc(NC(=O)CN2C(=O)C3CCCCN3c3ccc(C(=O)N(C)C)cc32)s1 (centres undefined) |
| 904 | Cc1ccc(C(=O)N2CCCCC2c2nc(-c3ccncc3)no2)s1 (centres undefined) |

| RP-LC retention time [s] | Compound |
| --- | --- |
| 998 | O=C(Nc1nc(-c2ccccc2)cs1)c1cncc(Br)c1 |
| 1100 | Cc1ccc(NC(=O)N2CCCC2c2nc(-c3ccccc3)no2)c(Cl)c1 (centres undefined) |
| 715 | O=C(CN1CCC(c2nc(-c3ccc(F)cc3)no2)CC1)NC1CCCCC1 |
| 977 | Cc1cc(S(=O)(=O)N2CCC(N(C(=O)C3CC3)C3CCOCC3)CC2)ccc1Cl |
| 925 | Cc1nc(COc2ccccc2)sc1C(=O)N1CCC(C(N)=O)CC1 |
| 843 | CCCNC(=O)CCc1nc2ccccc2n(CC(=O)Nc2ccccc2C(=O)OC)c1=O |
| 721 | COc1ccc2c(c1)c(CN1CCCCCCN(C)C(=O)[C@@H]3CCC[C@@H]31)cn2C |
| 764 | Cc1cccc(CN2C(=O)CCc3c(C)nc(-c4ccncc4)nc32)c1 |
| 889 | O=C(NCc1ccco1)c1ccc2c(c1)CCCN2C(=O)c1cccc(Cl)c1 |
| 643 | CCc1nc(N)n(CC(=O)Nc2cc(C)ccc2C)c(=O)c1C |
| 641 | O=C(NCc1cccs1)C1CCCN(C(=O)c2cc(-c3ccccn3)n[nH]2)C1 (centres undefined) |
| 994 | CCOc1ccccc1NC(=O)C1CCN(S(C)(=O)=O)c2ccccc2O1 (centres undefined) |
| 872 | Cn1ncc(Br)c1C(=O)N1CCCC1c1ccccc1F (centres undefined) |
| 649 | O=C(CSCc1nc2cccnc2n1C1CCCCC1)N1CCN(c2ccccn2)CC1 |
| 876 | CCOC(=O)CNC(=O)C1(C)Cn2c(ccc2-c2ccco2)C(=O)N1Cc1ccccc1Cl (centres undefined) |
| 941 | CCCCN(CC)c1nc(-c2ccc(C)cc2)nc2ccccc12 |
| 726 | Cc1cccc(CN2CC=C(C(=O)N3CCN(c4ccccc4C)CC3)CC2)c1 |
| 849 | Cc1ccc(S(=O)(=O)N2CC3CN(C(=O)COCc4ccccc4)CC(C2)O3)cc1 |
| 788 | COCC(=O)N(C1CCOCC1)C1CCN(S(=O)(=O)c2ccc(F)c(F)c2)CC1 |
| 905 | O=S(=O)(Cc1ccccc1)N1CCCC(c2nnnn2-c2ccccc2)C1 (centres undefined) |
| 723 | Cc1ccc(NC(=O)C2CCN(S(=O)(=O)c3c(C)[nH]c(C)c3C(=O)N3CCCC3)CC2)cc1 |
| 881 | CCOC(=O)C1=C(O)C(=O)N(c2ccccc2)C1c1ccccc1 (centres undefined) |
| 672 | O=C(C1CCN(c2nn3c(=O)c4c(nc3s2)CCCC4)CC1)N1CCN(c2ncccn2)CC1 |

| RP-LC retention time [s] | Compound |
| --- | --- |
| 767 | CN(C)S(=O)(=O)N1CCOc2ccc(CCC(=O)NCC3CC3)cc2C1 |
| 700 | N#Cc1ccc(C(=O)NC2CCN(c3cc(-c4cccs4)[nH]n3)C2)cc1 (centres undefined) |
| 1190 | COc1cc(C(=O)Nc2nc(-c3ccc(C)cc3)c(C)s2)c(Br)c(OC)c1OC |
| 971 | COc1ccc(N2CC(c3noc(-c4ccc(Cl)cc4OC)n3)CC2=O)cc1 (centres undefined) |
| 587 | Cn1cnnc1CC1CCN(C(=O)Nc2ccccc2)C1 (centres undefined) |
| 559 | COC[C@@H]1CN(Cc2cc(C)nn2C)C[C@H]1c1ccccn1 |
| 564 | Cc1cc(C)cc(NC(=O)CN2CCC(C(=O)NC3CC3)CC2)c1 |
| 1190 | Cc1cccc(-c2nnc(-c3cccc(S(=O)(=O)N4CCCCCC4)c3)o2)c1 |
| 593 | CCC(CC)C(=O)Nc1ccc2nc(N3CCN(CC)CC3)cc(C)c2c1 |
| 626 | COCC(=O)N(C)CCc1noc(-c2ccc(C(=O)N3CCCC3)cc2)n1 |
| 890 | Fc1ccc(Cc2nc3nccc(-c4ccccc4)n3n2)cc1 |
| 623 | COc1ccccc1CN1CCN(C(=O)C2CCc3nc(N4CCCCC4)ncc3C2)CC1 (centres undefined) |
| 693 | CCOC(=O)c1ccc(NC(=O)c2ccc(=O)n(C)n2)cc1 |
| 636 | CCN1CCN(CCNC(=O)c2sc3cc(Cl)ccc3c2OC)CC1 |
| 704 | CS(=O)(=O)Nc1ccc(-c2noc(CNC(=O)c3ccccc3)n2)cc1 |
| 745 | O=C(CN1CCN(c2ccc3c(c2)OCCO3)C1=O)NCc1nc(-c2ccccc2)no1 |
| 601 | CC(C)CNC(=O)Cn1c(C(C)C)nc2ccccc21 |
| 1020 | COc1ccc(-c2noc(Cc3nnc(-c4cccc(F)c4)o3)n2)cc1 |
| 865 | COc1ccc(Cl)cc1C(=O)NC1CCN(c2cc(-c3cccs3)[nH]n2)CC1 |
| 616 | COc1cccc(NC(=O)N2CCN(c3nc4ccccc4n3C)CC2)c1 |

Reference: the METLIN SMRT retention time set (Domingo-Almenara et al. 2019)
